PubChem BioAssay AID180 (DTP/NCI, 2004)
“And” between values parts separate entries of the source, which are not always exact repeats. Equal entries are not always repeated.

System: BDF1 mice, Adenocarcinoma 755 s.c., tumor weight T/C
Test: NCI In Vivo Anticancer Drug Screen. Data for tumor model Adenocarcinoma 755 (subcutaneous) in B6D2F1 (BDF1) mice
Details: endpoint: mean tumor weight, higher = larger tumour
Procedure, shortened: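 Transplantable tumor implanted; mice dosed with compound or vehicle; survival or tumor size recorded; ratio of treated to vehicle control reported.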

[1] = dose: 10.0 mg/kg/injection, schedule: Q01DX011 (ip), vehicle: saline
[2] = dose: 15.0 mg/kg/injection, schedule: Q01DX011 (ip), vehicle: methylcellulose (MC)
[3] = dose: 62.0 mg/kg/injection, schedule: Q01DX011 (ip), vehicle: methylcellulose (MC)
[4] = dose: 125.0 mg/kg/injection, schedule: Q01DX011 (ip), vehicle: methylcellulose (MC)
[5] = dose: 250.0 mg/kg/injection, schedule: Q01DX011 (ip), vehicle: methylcellulose (MC)
[6] = dose: 30.0 mg/kg/injection, schedule: Q01DX011 (ip), vehicle: saline
[7] = dose: 60.0 mg/kg/injection, schedule: Q01DX011 (ip), vehicle: saline
[8] = dose: 20.0 mg/kg/injection, schedule: Q01DX011 (ip), vehicle: saline
[9] = dose: 25.0 mg/kg/injection, schedule: Q01DX011 (ip), vehicle: saline
[10] = dose: 40.0 mg/kg/injection, schedule: Q01DX011 (ip), vehicle: saline
[11] = dose: 50.0 mg/kg/injection, schedule: Q01DX011 (ip), vehicle: saline

O=c1[nH]cnc2c1ncn2C1CCCC1
T/C (dose: 18.1 mg/kg/injection, schedule: Q01DX011 (ip), vehicle: carboxymethylcellulose (CMC)): 81 % of control
T/C (dose: 18.12 mg/kg/injection, schedule: Q01DX011 (ip), vehicle: carboxymethylcellulose (CMC)): 124 % of control
T/C (dose: 36.2 mg/kg/injection, schedule: Q01DX011 (ip), vehicle: carboxymethylcellulose (CMC)): 78 % of control
T/C (dose: 36.25 mg/kg/injection, schedule: Q01DX011 (ip), vehicle: carboxymethylcellulose (CMC)): 90 % of control
T/C (dose: 56.0 mg/kg/injection, schedule: Q01DX001 (ip), vehicle: carboxymethylcellulose (CMC)): 70 % of control
T/C (dose: 72.5 mg/kg/injection, schedule: Q01DX011 (ip), vehicle: carboxymethylcellulose (CMC)): 100 % of control and 87 % of control
T/C (dose: 112.0 mg/kg/injection, schedule: Q01DX001 (ip), vehicle: carboxymethylcellulose (CMC)): 70 % of control
T/C (dose: 145.0 mg/kg/injection, schedule: Q01DX011 (ip), vehicle: carboxymethylcellulose (CMC)): 75 % of control and 85 % of control
T/C (dose: 225.0 mg/kg/injection, schedule: Q01DX001 (ip), vehicle: carboxymethylcellulose (CMC)): 37 % of control

Nc1nc(SCc2ccccc2Cl)c2ncn(C3OC(CO)C(O)C3O)c2n1 (configuration not stated)
T/C (dose: 0.85 mg/kg/injection, schedule: Q01DX011 (ip), vehicle: methylcellulose (MC)): 69 % of control
T/C (dose: 1.7 mg/kg/injection, schedule: Q01DX011 (ip), vehicle: methylcellulose (MC)): 22 % of control
T/C (dose: 3.4 mg/kg/injection, schedule: Q01DX011 (ip), vehicle: methylcellulose (MC)): 26 % of control
T/C (dose: 6.75 mg/kg/injection, schedule: Q01DX011 (ip), vehicle: methylcellulose (MC)): 4 % of control

CCC1=C(c2cc(Cl)c3ccccc3c2OCC(=O)O)OC(CC)(C(=O)c2cc(Cl)c3ccccc3c2OCC(=O)O)CC1 (configuration not stated)
T/C (dose: 30.0 mg/kg/injection, schedule: Q01DX011 (ip), vehicle: alkali diluted with saline): 152 % of control

CCC(=O)NC
T/C (dose: 45.0 mg/kg/injection, schedule: Q01DX011 (ip), vehicle: saline): 107 % of control
T/C (dose: 175.0 mg/kg/injection, schedule: Q01DX011 (ip), vehicle: saline): 81 % of control
T/C (dose: 350.0 mg/kg/injection, schedule: Q01DX011 (ip), vehicle: saline): 118 % of control
T/C (dose: 625.0 mg/kg/injection, schedule: Q#A X022 (ip), vehicle: other): 6 % of control
T/C (dose: 1000.0 mg/kg/injection, schedule: Q01DX011 (ip), vehicle: other): 11 % of control
T/C (dose: 1500.0 mg/kg/injection, schedule: Q01DX011 (ip), vehicle: other): 6 % of control
T/C (dose: 1560.0 mg/kg/injection, schedule: Q01DX011 (ip), vehicle: other): 49 % of control
T/C (dose: 1750.0 mg/kg/injection, schedule: Q01DX011 (ip), vehicle: other): 36 % of control

O=CNC(Cc1cccc(N(CCCl)CCCl)c1)C(=O)O (configuration not stated)
T/C (dose: 0.25 mg/kg/injection, schedule: Q01DX011 (ip), vehicle: methylcellulose (MC)): 96 % of control
T/C (dose: 0.5 mg/kg/injection, schedule: Q01DX011 (ip), vehicle: methylcellulose (MC)): 59 % of control
T/C (dose: 1.0 mg/kg/injection, schedule: Q01DX011 (ip), vehicle: methylcellulose (MC)): 57 % of control
T/C (dose: 1.1 mg/kg/injection, schedule: Q01DX011 (ip), vehicle: methylcellulose (MC)): 36 % of control
T/C (dose: 2.0 mg/kg/injection, schedule: Q01DX011 (ip), vehicle: methylcellulose (MC)): 41 % of control
T/C (dose: 2.25 mg/kg/injection, schedule: Q01DX011 (ip), vehicle: methylcellulose (MC)): 22 % of control
T/C (dose: 4.5 mg/kg/injection, schedule: Q01DX011 (ip), vehicle: methylcellulose (MC)): 4 % of control

CCC1CN1CC1CO1 (configuration not stated)
T/C (dose: 5.0 mg/kg/injection, schedule: Q01DX011 (ip), vehicle: saline): 96 % of control
T/C [1]: 99 % of control

Cc1cnc(SCc2ccccc2)nc1N(C)C
T/C [2]: 57 % of control
T/C [3]: 60 % of control
T/C [4]: 65 % of control
T/C [5]: 50 % of control

CCOC(C)C(/C=N/NC(N)=S)=NNC(N)=S (configuration not stated)
T/C (dose: 15.0 mg/kg/injection, schedule: Q01DX011 (ip), vehicle: saline): 49 % of control
T/C [6]: 109 % of control
T/C [7]: 117 % of control
T/C (dose: 120.0 mg/kg/injection, schedule: Q01DX011 (ip), vehicle: saline): 71 % of control

COc1ccccc1NC(=O)CSC(N)=O
T/C (dose: 50.0 mg/kg/injection, schedule: Q01DX011 (ip), vehicle: methylcellulose (MC)): 106 % of control
T/C (dose: 400.0 mg/kg/injection, schedule: Q01DX011 (ip), vehicle: carboxymethylcellulose (CMC)): 5 % of control

CC1CN(Cc2ccco2)C(=S)N(c2ccccc2)C1=O (configuration not stated)
T/C [2]: 81 % of control
T/C (dose: 31.0 mg/kg/injection, schedule: Q01DX011 (ip), vehicle: methylcellulose (MC)): 84 % of control
T/C [3]: 99 % of control
T/C [4]: 84 % of control
T/C [5]: 98 % of control

c1nc([N+]23CCC(CC2)CC3)c2[nH]cnc2n1
T/C (dose: 12.5 mg/kg/injection, schedule: Q01DX011 (ip), vehicle: saline): 101 % of control
T/C [8]: 98 % of control
T/C [9]: 56 % of control
T/C [6]: 50 % of control
T/C [10]: 41 % of control
T/C [11]: 19 % of control and 29 % of control

CS(=O)(=O)OCCC(=O)NCCCCCNC(=O)CCOS(C)(=O)=O
T/C (dose: 57.0 mg/kg/injection, schedule: Q01DX011 (ip), vehicle: methylcellulose (MC)): 64 % of control
T/C (dose: 113.0 mg/kg/injection, schedule: Q01DX011 (ip), vehicle: methylcellulose (MC)): 53 % of control
T/C (dose: 225.0 mg/kg/injection, schedule: Q01DX011 (ip), vehicle: methylcellulose (MC)): 30 % of control

CCCNc1ncnc2c1cnn2C1CCCCO1 (configuration not stated)
T/C (dose: 3.12 mg/kg/injection, schedule: Q01DX011 (ip), vehicle: methylcellulose (MC)): 67 % of control
T/C (dose: 6.25 mg/kg/injection, schedule: Q01DX011 (ip), vehicle: methylcellulose (MC)): 54 % of control
T/C (dose: 12.5 mg/kg/injection, schedule: Q01DX011 (ip), vehicle: methylcellulose (MC)): 44 % of control

CS(=O)(=O)OCCC(=O)NCCNC(=O)CCOS(C)(=O)=O
T/C (dose: 6.3 mg/kg/injection, schedule: Q01DX011 (ip), vehicle: saline): 167 % of control
T/C [1]: 64 % of control
T/C [8]: 120 % of control
T/C (dose: 25.0 mg/kg/injection, schedule: Q01DX011 (ip), vehicle: methylcellulose (MC)): 4 % of control
T/C [9]: 65 % of control
T/C [6]: 20 % of control
T/C [10]: 12 % of control
T/C [11]: 5 % of control and 10 % of control
T/C [7]: 1 % of control
